Reference: US20040254189A1, “Jnk inhibitors” (priority 2001, published 2004)

How the values were obtained:
JNK = JNK kinase assay on protein extract of treated RBL-2H3 cells with c-Jun(1-89) as substrate; assay type: cell-based, rat; conditions: 10^−5 to 10^−7 mol/l
Description: (§1) Rat basophilic leukemia 2H3 (RBL-2H3) cells (JCRB0023 from Health Science Research Resources Bank) were seeded in a 6-well plate or a 60 mm dish (0.5×10^6 cells/ml) and sensitized with the anti-DNP-IgE antibody (1:2000) at 37° C. for 90 minutes, and then washed twice with a glucose/PIPES buffer. After the RBL-2H3 cells were incubated at 37° C. for 15 minutes in the presence of Compound A or DMSO (at a final concentration of 0.1%), DNP-BSA (at a final concentration of 3 ng/ml) was added, and further incubation was performed for 10 minutes. The cells were then washed twice with PBS on ice, the cells were harvested with a scraper in a cell extraction buffer for western blot analysis or kinase assay, and incubated on ice for 15 minutes, and centrifuged (14,500 rpm, 4° C., 15 minutes). The resulting supernatant was recovered.
JNK Kinase Assay: The total protein extracted from the cells (250 μg) was incubated for 12 hours with gentle rocking with GST-c-Jun(1-89) sepharose beads (2 μg) at 4° C. After washing, a kinase buffer was used for replacement. ATP ([…]) was added to start the kinase reaction. After incubation was performed at 30° C. for 30 minutes, 10% SDS-PAGE was used for separation. The phosphorylated GST-c-Jun(1-89) was detected by a chemiluminescence technique using an anti-phospho-c-Jun antibody.

peritoneal mast cells = assay: Antigen stimulation-induced release of TNF-α from peritoneal mast cells of passively sensitized rat; assay type: cell-based; conditions: 10^−9 to 10^−5 mol/l, 60 minutes preincubation, two hours after DNP-BSA
Description: Female Wistar rats were intraperitoneally administered 2 ml of an anti-DNP-IgE antibody (diluted 250-fold), and killed by exsanguination after 48 hours. 20 ml of a physiological mast cells medium (MCM) was injected into the abdominal cavity, and the lavage was recovered. The lavage was centrifuged at 50×g for seven minutes at 4° C. and then washed twice with MCM. Cells were suspended in 1 ml of a heparin-free MCM at a concentration of 1.25×10^5 cells/mL, and then CaCl2 was added (at a final concentration of 1 mmol/L). The resulting mixture was incubated with Compound A or DMSO (at a final concentration of 0.1%) at 37° C. for 60 minutes, and then DNP-BSA (at a final concentration of 30 ng/mL) was added, and further incubation was performed for two hours. Thereafter, the supernatant was harvested and stored at −40° C. until the amount of TNF-A was measured. The amount of TNF-α was determined using a commercially available ELISA kit.

PLCγ = assay: Western blot analysis of activated site-specific phosphorylation of PLCγ in passively sensitized RBL-2H3 cells after antigen stimulation; assay type: cell-based, rat; conditions: ten minutes after antigen stimulation
Description: as §1
(§2) Western Blot Analysis: The supernatant of the total protein extracted from the cells was separated by 10% SDS-PAGE. The proteins and phosphorylated proteins were detected by a chemiluminescence technique using an anti-PLCγ-1[pY783] phosphospecific antibody, an anti-PLCγ antibody, an anti-active JNK (pTPpY) antibody, an anti-phospho-MAPK (ERK1/2)(Thr202/[…]) antibody, an anti-phospho-p38MAPK (Thr180/Tyr182) antibody, an anti-p44/42MAP kinase antibody, and an anti-JNK antibody.

TNF-α = assay: Increase in the amount of TNF-α in ear tissue of IgE-passively sensitized mouse after antigen (DNFB) stimulation; assay type: in vivo; conditions: female BALB/c mice, p.o., eight hours after application of DNFB
Description: Female BALB/c mice were passively sensitized systemically by intravenous administration of 0.25 ml of a 20-fold diluted anti-DNP monoclonal antibody. On the following day, skin reactions were induced by applying 10 μl of a 0.15% dinitrofluorobenzene solution (DNFB diluted with a 4:1 mixture of acetone and olive oil) to each side of both ears of mice. Eight hours after the application of DNFB, both ears were cut off and homogenized in 400 μl of PBS using Polytron and then centrifuged (15,000 rpm, 15 minutes, 4° C.). The resulting supernatant was used as a sample. The amount of TNF-α was determined using a commercially available ELISA kit. The amount of proteins in the sample was also determined, and the amount of TNF-α was calculated per mg of protein. A preliminary test was performed in which an auricle sample was taken at certain intervals after the application of the antigen, and a time course of the amount of TNF-α was observed. The drug was orally administered one hour before the application of DNFB.

p38MAPK = assay: Western blot analysis of activated site-specific phosphorylation of p38MAPK in passively sensitized RBL-2H3 cells after antigen stimulation; assay type: cell-based, rat; conditions: ten minutes after antigen stimulation
Description: as §1, §2

ERKs = assay: Western blot analysis of activated site-specific phosphorylation of ERKs in passively sensitized RBL-2H3 cells after antigen stimulation; assay type: cell-based, rat; conditions: ten minutes after antigen stimulation
Description: as §1, §2

RBL-2H3 cells = assay: Western blot analysis of protein expression amount in RBL-2H3 cells; assay type: cell-based, rat; conditions: treatment with Compound A
Description: as §1, §2

JNK (JNK1 and JNK2) = assay: Western blot analysis of activated site-specific phosphorylation of JNK in passively sensitized RBL-2H3 cells after antigen stimulation; assay type: cell-based, rat
Description: as §1, §2

CC(C)(C(=O)O)n1nc2ccc(NCCCN3CCC(OC(c4ccccc4)c4ccccc4)CC3)nn2c1=O (hydrate or solvate)
melting point: 181 to 185 °C

CCOC(=O)C(C)(C)c1cn2nc(NCCCN3CCC(NC(c4ccccc4)c4ccccc4)CC3)ccc2n1
melting point: 115 to 117 °C

c1ccc(C(OC2CCN(CCCCCCNc3ccc4nncn4n3)CC2)c2ccccc2)cc1 (hydrate or solvate)
melting point: 124 to 127 °C

CC(C)(C(=O)O)c1cn2nc(NCCCN3CCC(OC(c4ccccc4)c4ccccc4)CC3)ccc2n1.O.O [Compound A, 2-[6-[3-[4-(diphenylmethoxy)piperidino]propylamino]imidazo[1,2-b]pyridazin-2-yl]-2-methylpropionic acid dihydrate]
JNK activity of protein extract on c-Jun(1-89) substrate (JNK): inhibited depending on the concentration
effect on antigen stimulation-induced release of TNF-α (peritoneal mast cells): inhibited the antigen stimulation-induced release of TNF-α in a concentration-dependent manner
influence on activated site-specific phosphorylation of PLCγ (PLCγ): no influence
effect on the increase in the amount of TNF-α in ear tissue (TNF-α; 0.1 to 10 mg/kg, one hour before DNFB): inhibited the increase in the amount of TNF-α in a dose-dependent manner
dose with significant inhibition of the increase in the amount of TNF-α (TNF-α; p<0.01 vs. control (Dunnett)): ≥ 1 mg/kg
influence on activated site-specific phosphorylation of p38MAPK (p38MAPK): no influence
influence on activated site-specific phosphorylation of ERKs (ERKs): no influence
expression amount of any other protein (RBL-2H3 cells): not influenced
effect on specific phosphorylation of JNK (JNK1 and JNK2) (JNK (JNK1 and JNK2); 10^−5 to 10^−7 mol/l, ten minutes after antigen stimulation): inhibited the specific phosphorylation of JNK (JNK1 and JNK2) in a dose-dependent manner
selectivity for JNK activation among cascades activated depending on IgE (JNK (JNK1 and JNK2); versus PLCγ, ERKs, p38MAPK in RBL-2H3 cells): selectively inhibits the activation of JNK

CC(C)(C)C(=O)OCOC(=O)C(C)(C)n1nc2ccc(NCCCN3CCC(OC(c4ccccc4)c4ccccc4)CC3)nn2c1=O
melting point: 162 °C

CC(C)(C(=O)O)c1cn2nc(NCCCN3CCC(OC(c4ccccc4)c4ccccc4)CC3)ccc2n1
melting point: 205 to 206 °C

c1ccc(C(OC2CCN(CCCNc3ccc4ncnn4n3)CC2)c2ccccc2)cc1
melting point: 136 to 138 °C

CCOC(=O)C(C)(C)n1nc2ccc(NCCCN3CCC(OC(c4ccccc4)c4ccccc4)CC3)nn2c1=O.Cl
melting point: 162 °C

Cc1c(C(C)(C)C(=O)O)nc2ccc(NCCCN3CCC(OC(c4ccccc4)c4ccccc4)CC3)nn12
melting point: 219 to 220 °C

O=C(O)/C=C/C(=O)O.c1ccc(C(OC2CCN(CCCCCCOc3ccc4nncn4n3)CC2)c2ccccc2)cc1
melting point: 144 to 146 °C

O=C(O)c1nnc2ccc(NCCCN3CCC(OC(c4ccccc4)c4ccccc4)CC3)nn12 (hydrate or solvate)
melting point: 102 to 104 °C

CCOC(=O)CNC(=O)c1cn2nc(NCCCN3CCC(OC(c4ccccc4)c4ccccc4)CC3)ccc2n1.Cl.Cl
melting point: 205 °C

CC(C)(C)c1nnc2ccc(OCCCN3CCC(OC(c4ccccc4)c4ccccc4)CC3)nn12
melting point: 125 to 127 °C

O=c1[nH]nc2ccc(NCCCN3CCC(OC(c4ccccc4)c4ccccc4)CC3)nn12 (hydrate or solvate)
melting point: 156 to 170 °C

CCOC(=O)c1nnc2ccc(NCCCN3CCC(OC(c4ccccc4)c4ccccc4)CC3)nn12 (hydrate or solvate)
melting point: 129 to 133 °C

CC(C)(C(=O)O)c1cn2nc(NCCCN3CCC(OC(c4ccccc4)c4ccccc4)CC3)ccc2n1.O.O (hydrate or solvate) [Compound A, 2-[6-[3-[4-(diphenylmethoxy)piperidino]propylamino]imidazo[1,2-b]pyridazin-2-yl]-2-methylpropionic acid dihydrate]
melting point: 203 to 205 °C
